Results: patent US20190241962A1, “GENETIC SUSCEPTIBILITY DIAGNOSIS AND TREATMENT OF MENTAL DISORDERS” (priority 2016, published 2019)
“Also recorded” adds a separate entry of the source.

Legend:
IL-6 = experiment: RT-PCR IL-6 mRNA level in the cortex; assay type: in vivo, mice
Description: (§1) 100 microliters of 2-propanol was added. […] RNA was stored at −80 deg C.

CB1 receptor = experiment: RT-PCR CB1 receptor mRNA level in the cortex; assay type: in vivo, mice
Description: as §1

ABHD6 = experiment: RT-PCR ABHD6 mRNA level in the cortex; assay type: in vivo, mice
Description: as §1

MGL = experiment: RT-PCR MGL mRNA level in the cortex; assay type: in vivo, mice
Description: as §1

FAAH = experiment: RT-PCR FAAH mRNA level in the cortex; assay type: in vivo, mice
Description: as §1

NAPE-PLD = experiment: RT-PCR NAPE-PLD mRNA level in the cortex; assay type: in vivo, mice
Description: as §1

GAD67 = experiment: RT-PCR GAD67 mRNA level in the cortex; assay type: in vivo, mice
Description: as §1

[1] = system: endocannabinoid catabolic enzymes (FAAH, MGL, ABHD6); experiment: RT-PCR mRNA level of endocannabinoid catabolic enzymes in cortex and brainstem; assay type: in vivo, mice; details: BCP after exposure to phencyclidine, females
Description: as §1

Sabra mice = experiment: Open-field test, ambulation behavior, PCP mouse model of schizophrenia
CB2 receptor = experiment: RT-PCR CB2 receptor mRNA level in the cortex; details: PCP vs control group
Description: Each brain area was placed in an Eppendorf vessel and covered with RNAlater® solution (Ambion). Eppendorfs were stored overnight at 4° C. and then stored at (−)80° C. for permanent use.
Twenty microliters of 1-bromo-3-chloropropane were added and the Eppendorf was vortexed. After 10 min at room temperature it was centrifuged at 12,000×g for 15 minutes at 4° C. Then the colorless upper aqueous phase was removed to a fresh tube. 100 microliters of 2-propanol was added. Samples were centrifuged again 12,000×g for 10 minutes at 4° C. The supernatant was removed and the RNA pellet was washed with 200 ul cold 75% ethanol. The sample was re-centrifuged at 8000×g for 5 minutes at 4° C. The RNA pellet was dried for 5 minutes by air-drying on ice and 50 ul DEPC water were added to the RNA pellet. RNA was stored at −80 deg C. Genomic DNA strands were then removed by Turbo DNA-free Kit according to manufacturer's recommendation. RNA level was read by Nanodrop® reader. cDNA was prepared according to the manufacturer recommendation using High Capacity cDNA Reverse Transcription Kit (Applied Biosystems).
RT-PCR reaction mix was prepared with Power SYBR® Green PCR Master Mix (Applied Biosystems) according to manufacturer instructions. Mixes were read with Mx300P (Stratagen) and the results of Ct were analysed according to the delta-delta Ct method of analysis.

[2] = BCP after PCP, female mice, cortex
[3] = BCP after PCP, male mice, cortex
[4] = BCP after PCP, female mice, right and left cortices
[5] = PCP vs control group, female mice, left cortex
[6] = PCP vs control group, female mice, right cortex
[7] = PCP vs control group, male mice, left cortex
[8] = PCP vs control group, male mice, right cortex
[9] = PCP vs control group, female mice, right and left cortices
[10] = PCP vs control group, male mice, cortex

SMILES: C=C1CC/C=C(\C)CC[C@@H]2[C@@H]1CC2(C)C [BCP, beta-caryophyllene]
- IL-6 mRNA level (IL-6; [2]): did not alter gene expression of IL-6
- IL-6 mRNA level (IL-6; [3]): reversed the effect of PCP
- CB1 receptor mRNA level (CB1 receptor; [2]): did not alter gene expression of CB1 receptor
- CB1 receptor mRNA level (CB1 receptor; [3]): did not alter gene expression of CB1 receptor
- ABHD6 mRNA level (ABHD6; [2]): did not reverse; also recorded: did not alter gene expression of ABHD6
- MGL mRNA level (MGL; [2]): did not reverse; also recorded: did not alter gene expression of MGL
- FAAH mRNA level (FAAH; [2]): did not reverse; also recorded: did not alter gene expression of FAAH
- FAAH mRNA level (FAAH; BCP after PCP, male mice): reversed the effect of PCP
- NAPE-PLD mRNA level (NAPE-PLD; [4]): did not reverse this effect
- NAPE-PLD mRNA level (NAPE-PLD; [3]): did not affect the expression level of NAPE-PLD mRNA
- GAD67 mRNA level (GAD67; [4]): did not reverse this effect
- GAD67 mRNA level (GAD67; [3]): did not affect the expression level of GAD67 mRNA
- mRNA level of the selected endocannabinoid catabolic enzymes [1]: did not lead to significant changes
- ambulation behavior (Sabra mice; BCP 10 mg/kg one hour after PCP, Sabra female mice): reversed altered behavior
- ambulation behavior (Sabra mice; BCP 10 mg/kg one hour after PCP, Sabra male mice): reversed altered behavior

SMILES: c1ccc(C2(N3CCCCC3)CCCCC2)cc1 [PCP, Phencyclidine]
- IL-6 mRNA level (IL-6; [5]): not in the left cortex
- IL-6 mRNA level (IL-6; [6]): reduced
- IL-6 mRNA level (IL-6; [7]): not in the left cortex
- IL-6 mRNA level (IL-6; [8]): elevated
- CB1 receptor mRNA level (CB1 receptor; [6]): elevated; also recorded: increased
- CB1 receptor mRNA level (CB1 receptor; [8]): elevated
- ABHD6 mRNA level (ABHD6; [5]): significantly decreased; also recorded: reduced
- ABHD6 mRNA level (ABHD6; [6]): not in the right cortex
- ABHD6 mRNA level (ABHD6; [7]): not in males
- MGL mRNA level (MGL; [5]): significantly decreased; also recorded: reduced
- MGL mRNA level (MGL; [7]): not in males
- FAAH mRNA level (FAAH; [5]): significantly decreased; also recorded: reduced
- NAPE-PLD mRNA level (NAPE-PLD; [9]): reduced
- NAPE-PLD mRNA level (NAPE-PLD; [10]): not altered
- GAD67 mRNA level (GAD67; [9]): reduced
- GAD67 mRNA level (GAD67; [10]): not altered
- CB2 receptor mRNA level (CB2 receptor; female mice, right cortex): reduced
- CB2 receptor mRNA level (CB2 receptor; left cortex): no change
- ambulation behavior (Sabra mice; PCP 5 mg/kg vs control group, Sabra female mice): reduced
- ambulation behavior (Sabra mice; PCP 5 mg/kg vs control group, Sabra male mice): elevated
